These results are taken from article PMC7221589, “Development of a Rapid Mass Spectrometric Determination of AMP and Cyclic AMP for PDE3 Activity Study: Application and Computational Analysis for Evaluating the Effect of a Novel 2-oxo-1,2-dihydropyridine-3-carbonitrile Derivative as PDE-3 Inhibitor” (Molecules, 2020).

The target in the test is PDE3A (phosphodiesterase enzyme 3A) (Homo sapiens, UniProt Q14432). The test can be described thus: MS/MS assay of cAMP hydrolysis to AMP by purchased PDE3A, dose-response. Format: biochemical.
Sequence of PDE3A (phosphodiesterase enzyme 3A) (Q14432 whole entry): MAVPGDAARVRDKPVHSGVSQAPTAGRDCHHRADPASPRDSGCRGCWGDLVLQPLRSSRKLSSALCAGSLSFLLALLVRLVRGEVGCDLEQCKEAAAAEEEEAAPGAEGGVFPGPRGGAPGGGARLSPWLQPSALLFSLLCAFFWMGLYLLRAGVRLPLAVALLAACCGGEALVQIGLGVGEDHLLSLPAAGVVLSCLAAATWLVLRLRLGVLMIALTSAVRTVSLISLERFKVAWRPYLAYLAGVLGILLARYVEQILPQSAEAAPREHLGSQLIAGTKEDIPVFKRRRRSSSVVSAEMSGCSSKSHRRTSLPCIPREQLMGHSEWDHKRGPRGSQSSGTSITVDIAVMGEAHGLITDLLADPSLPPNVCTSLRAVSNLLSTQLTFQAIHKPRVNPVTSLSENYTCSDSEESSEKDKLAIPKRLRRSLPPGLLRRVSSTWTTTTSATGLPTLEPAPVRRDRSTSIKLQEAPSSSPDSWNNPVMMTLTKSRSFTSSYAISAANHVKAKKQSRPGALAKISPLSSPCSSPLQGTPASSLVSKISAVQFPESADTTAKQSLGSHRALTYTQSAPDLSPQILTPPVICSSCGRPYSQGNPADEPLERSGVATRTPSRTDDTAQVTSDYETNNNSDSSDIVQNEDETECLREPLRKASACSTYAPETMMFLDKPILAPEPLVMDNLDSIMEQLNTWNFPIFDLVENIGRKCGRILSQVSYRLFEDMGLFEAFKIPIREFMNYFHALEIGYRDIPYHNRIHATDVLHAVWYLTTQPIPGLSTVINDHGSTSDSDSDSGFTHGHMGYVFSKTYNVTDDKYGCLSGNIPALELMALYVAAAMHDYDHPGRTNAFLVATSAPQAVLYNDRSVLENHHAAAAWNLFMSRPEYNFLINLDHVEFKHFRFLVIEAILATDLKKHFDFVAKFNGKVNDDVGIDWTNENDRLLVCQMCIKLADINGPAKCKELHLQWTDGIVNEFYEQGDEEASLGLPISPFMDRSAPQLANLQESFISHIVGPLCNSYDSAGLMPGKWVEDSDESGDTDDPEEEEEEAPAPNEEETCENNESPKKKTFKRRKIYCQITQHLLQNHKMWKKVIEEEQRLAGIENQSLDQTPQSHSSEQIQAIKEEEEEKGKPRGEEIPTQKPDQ

As for `CCOC(=O)N1CCC(NC(=O)c2cc(C#N)c(=O)[nH]c2C)CC1` [DF492], inhibition was half-maximal at 410 nM (IC50).
